From US7632816B2, “Treatment of Alzheimer amyloid deposition” (New York University, priority 2003, dated 2009)
Entries after “also recorded” stand apart in the source; their conditions may differ. Square brackets hold non-standard residues; d marks the D form. Peptide text beside a SMILES is read from it.

Assays:
[1] = biological target: T1, apoE4 (Homo sapiens, UniProt P02649, C130R); experiment: Toxicity rescue: neutralizing apoE4's effect on Aβ1-42 neurotoxicity, MTT assay in SK-N-SH cells; type: cell-based; conditions: Aβ1-42 100 μmol/L, apoE4 0.5 μmol/L preincubated with 0.5 μmol/L peptide; two day p<0.05, 6 day p<0.01
T1 construct: made in house; host or cells: primary forebrain astrocytes of GFAP-human apoE4 transgenic mice
Protocol: (§1) All experiments were run in triplicate. The results from cell culture neurotoxicity studies were evaluated by one-way analysis of variance, followed by a Dunnett's test as a post hoc analysis.

[2] = mouse
[3] = test system: Aβ1-42; experiment: Aβ1-42 toxicity in SK-N-SH cells with peptide added without apoE, MTT assay; type: cell-based, human
Protocol: as §1

[4] = biological target: T1, apoE4; experiment: Competitive inhibition ELISA: apoE4 binding to immobilized Aβ1-40
Protocol: Lipidated apoE4 100 nM was preincubated with an increasing concentration of Aβ12-28P (0-400 nM) in 10 mM Tris buffer pH 7.4 for three hours at 37° C., and then added to the plate (100 μL/well). […] The color reaction was developed with a 3,3,5,5-tetramethybenzidine substrate (Sigma, St. Louis, Mo.), stopped with 2M sulfuric acid, and optical density (“OD”) was read at 450 nm on a 7520 Microplate Reader (Cambridge Technology, Watertown, Mass.). Non-specific binding was determined using bovine serum albumin and/or omitting the apoE4 in the assay. OD values were converted to percentages with the binding of apoE4 in the absence of inhibitor being considered as 100%. The mean±standard deviation from three independent duplicate experiments was plotted in FIG. 3 and analyzed by a one site competition nonlinear regression fit algorithm using GraphPad Prism v4.0 (GraphPad Software, San Diego, Calif.).

[5] = type: physicochemical
Excerpt: Circular dichroism (“CD”) was used to study the secondary structure of peptides in solution as described previously (Golabek et al., “The Interaction Between Apolipoprotein E and Alzheimer's Amyloid β-peptide is Dependent on β-peptide Conformation,” J. Biol. Chem. 271:10602-10606 (1996); Soto et al., “Alzheimer's Soluble β-amyloid is Conformationally Modified by Apolipoproteins in vitro,” Neuroreport 7:721-725 (1996); which are hereby incorporated by reference in their entirety). Aliquots of HFIP treated peptides were diluted in 5 mmol/L Tris buffer (pH 7.0) to obtain a peptide concentration of 100 μmol/L, and were incubated at 37° C. CD was measured at indicated intervals with t=0 being immediately after the peptide was reconstituted. Measurements were on a Jasco J-720 spectropolarimeter (Easton, Md.), equipped with a model CTC-344 circular temperature control system (Neslab Inc., Newington, N.H.), at final protein concentration of 0.15 mg/ml in a cell with 0.1 cm path length. The spectra were recorded at 1 nm intervals over the wavelength range of 190-260 nm at 15° C. Results were expressed as molar ellipticity in units of deg-cm^2-dmol^−1, and the data were analyzed by the Lincomb, convex constraints and neural network algorithms to obtain percentages of different types of secondary structures using Softsec software (Softwood Inc., PA.) (Perczel et al., “Analysis of Circular Dichroism Spectrum of Proteins Using the Convex Constraint Algorithm,” Anal. Biochem. 203:83-93 (1992); Manavalan et al., “Variable Selection Method Improves the Prediction of Protein Secondary Structure from Circular Dichroism,” Anal. Biochem. 167:76-85 (1987); Toumadje et al., “Extending CD Spectra of Proteins to 168nm Improves the Analysis for Secondary Structures,” Anal. Biochem. 200:321-331 (1992); Sreerma et al., “A Self-consistent Method for the Analysis of Protein Secondary Structure from Circular Dichroism,” Anal. Biochem. 209:32-44 (1993); which are hereby incorporated by reference in their entirety). […]

[6] = set-up: species or system mice; conditions: mouse, in vivo
Protocol: Blood samples were collected at given time points. Serum was separated from plasma by centrifugation at 10,000×g for 10 minutes. The trichloroacetic (TCA) acid precipitation method was used to assess the amount of radiolabeled peptide present in the serum (Yi et al., “Amyloid β40/42 Clearance Across the Blood-brain Barrier Following Intra-ventricular Injections in Wild-type, apoE Knock-out and Human apoE3 or E4 Expressing Transgenic Mice,” J. Alz. Dis. 3:23-30 (2001); Mackic et al., “Transport Across the Blood-brain Barrier and Differential Cerebrovascular Sequestration of Circulating Alzheimer's Amyloid-β Peptide in Aged Rhesus Versus Aged Squirrel Monkeys,” Vascul. Pharmacol. 38:303-313 (2002); which are hereby incorporated by reference in their entirety). A 30% stock solution of bovine albumin (Sigma, St. Louis, Mo.) in PBS was added to serum samples to obtain a final albumin solution of 5%, which was thoroughly mixed. Serum samples were then precipitated with TCA (final concentration of TCA was 15%) and centrifugated at 25,000×g in a Beckmann TL-100 Ultracentrifuge. Radioactivity was assessed in the pellet fraction using a Beckman 4000 gamma counter. Serum level of ^125I-Aβ12-28P following intranasal peptide administration was assessed in another six wild type C57BL6J mice. Under ketamine/xylazine anesthesia 80 μg of radiolabeled peptide (in 100 μl of PBS) was administered into the nasal cavity. Ten 10 μl drops were instilled into both nostrils alternatively over five minutes. Serum samples were collected and radioactivity in TCA precipitated pellets was measured as described above. The obtained data was transformed into percentage values compared to serum radioactivity following intravenous injections at t=0 as 100%. The mean±standard deviation from all tested animals was plotted in FIG. 4 and analyzed by a one phase exponential decay nonlinear regression fit algorithm using GraphPad Prism v4.0.
At t=0, the serum level was equal to about 40% of the level achieved after administration of the same amount of peptide intravenously.

[7] = CD immediately after reconstitution, 5 mmol/L Tris pH 7.0

T1 sequence (P02649 19-317 C130R): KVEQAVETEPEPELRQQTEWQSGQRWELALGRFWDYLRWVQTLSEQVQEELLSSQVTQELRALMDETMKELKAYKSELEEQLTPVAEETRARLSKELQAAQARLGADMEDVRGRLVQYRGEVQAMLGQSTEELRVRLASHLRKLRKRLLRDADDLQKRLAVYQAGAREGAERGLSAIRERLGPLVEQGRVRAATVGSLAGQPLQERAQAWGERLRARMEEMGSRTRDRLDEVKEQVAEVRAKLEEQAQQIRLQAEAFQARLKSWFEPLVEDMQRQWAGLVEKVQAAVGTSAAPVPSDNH

CC(=O)N[C@@H](C(=O)N[C@H](Cc1c[nH]cn1)C(=O)N[C@H](Cc1c[nH]cn1)C(=O)N[C@H](CCC(N)=O)C(=O)N[C@H](CCCCN)C(=O)N[C@H](CC(C)C)C(=O)N1CCC[C@@H]1C(=O)N[C@H](Cc1ccccc1)C(=O)N[C@H](Cc1ccccc1)C(=O)N[C@H](C)C(=O)N[C@H](CCC(=O)O)C(=O)N[C@H](CC(=O)O)C(=O)N[C@@H](C(=O)NCC(=O)N[C@H](CO)C(=O)N[C@H](CC(N)=O)C(=O)N[C@H](CCCCN)C(N)=O)C(C)C)C(C)C [Aβ12-28P] (Ac-[dV][dH][dH][dQ][dK][dL][dP][dF][dF][dA][dE][dD][dV]G[dS][dN][dK]-NH2)
rescue of cell viability from apoE4-enhanced Aβ1-42 toxicity [1]: significant rescue of the cell viability; also recorded: could be neutralized
BBB permeability [2]: BBB permeable
share found in the capillary depleted brain fraction ([2]; in vivo): More than 90%
cell viability, Aβ1-42 incubated with peptide ([3]; 10 μmol/L Aβ1-42 with 10 μmol/L peptide): Much more striking improvement in cell viability
cell viability, Aβ1-42 incubated with peptide without apoE ([3]; Aβ1-42 100 μmol/L, peptide 0.5 μmol/L, six days): slightly increased cell viability
IC50 ([4]; 100 nM lipidated apoE4 preincubated with 0-400 nM peptide, one-site competition fit): 36.7 nM
Ki ([4]; read-out: inhibition constant (KI)): 11.4 nM
β-sheet content ([5]; CD at time=0): 2%
random coil, share of the total protein structure [5, 7]: 59%
∝-helix, share of the total protein structure [5, 7]: 39%
areas under the curve, intravenous versus intranasal [6]: no significant differences
half-life after a single intravenous injection [6]: 1.03 h
half-life ([6]; iv, half-life after a single intravenous injection): 1.04 ± 0.3 h
